Measured values from ChEMBL document CHEMBL1152995, “Combined real-time PCR and pyrosequencing strategy for objective, sensitive, specific, and high-throughput identification of reduced susceptibility to penicillins in Neisseria meningitidis” (2008).
≈ marks a conversion by molar mass, not a printed value.

Assays:
[1] = system: Neisseria meningitidis; assay: Antibacterial activity against penicillin-intermediate resistant Neisseria meningitidis clinical isolates harbouring altered penA gene after 24 hrs by Etest method; type: functional
[2] = system: Neisseria meningitidis; assay: Antibacterial activity against penicillin-intermediate resistant Neisseria meningitidis after 24 hrs by Etest method; type: functional

SMILES	MIC [1] [µg/mL]	MIC [2] [µg/mL]
CC1(C)S[C@@H]2[C@H](NC(=O)[C@H](N)c3ccccc3)C(=O)N2[C@H]1C(=O)O [AMPICILLIN]	> 0.064	
CO/N=C(\C(=O)N[C@@H]1C(=O)N2C(C(=O)O)=C(COC(C)=O)CS[C@H]12)c1csc(N)n1 [CEFOTAXIME]	≤ 0.012	
CC1(C)S[C@@H]2[C@H](NC(=O)Cc3ccccc3)C(=O)N2[C@H]1C(=O)O [PENICILLIN G]	> 0.094	0.064 (≈ 0.191 µM)
